# How the values were obtained:
# [1] = system: P. berghei liver stage (PbLuc); test: P. berghei luciferase liver stage (PbLuc) assay in HepG2-A16-CD81 hepatocytes; assay type: cell-based, Plasmodium berghei; details: Plasmodium berghei; for IC50: HepG2-A16-CD81, 12pt dose response, read-out: PbLuc 12pt dose response: IC50; for Emax: HepG2-A16-CD81, 48 h, 12pt dose response, maximum inhibition
# [2] = target: recombinant firefly luciferase (Photinus pyralis, UniProt P08659); test: biochemical; details: dose response; for Emax: maximum inhibition, read-out: rLuc inhibition dose response: Maximum inhibition (%); for IC50: read-out: rLuc inhibition dose response: IC50
# Sequence of recombinant firefly luciferase (P08659 whole entry): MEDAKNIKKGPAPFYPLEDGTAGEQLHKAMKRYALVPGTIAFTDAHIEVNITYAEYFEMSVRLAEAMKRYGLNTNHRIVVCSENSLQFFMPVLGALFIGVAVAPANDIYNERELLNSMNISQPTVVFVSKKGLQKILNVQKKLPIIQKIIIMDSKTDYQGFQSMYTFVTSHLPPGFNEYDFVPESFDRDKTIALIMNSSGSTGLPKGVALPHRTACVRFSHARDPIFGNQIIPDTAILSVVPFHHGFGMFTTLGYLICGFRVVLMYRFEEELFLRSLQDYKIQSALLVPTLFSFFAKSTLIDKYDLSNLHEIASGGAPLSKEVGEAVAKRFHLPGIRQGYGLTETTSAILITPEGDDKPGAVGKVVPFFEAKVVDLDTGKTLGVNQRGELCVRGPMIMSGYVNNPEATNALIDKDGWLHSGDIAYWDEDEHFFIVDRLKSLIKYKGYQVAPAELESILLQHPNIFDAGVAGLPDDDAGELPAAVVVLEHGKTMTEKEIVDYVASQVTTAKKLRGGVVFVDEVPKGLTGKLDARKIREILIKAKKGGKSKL
# [3] = HepG2 cytotoxicity screening (CellTiter-Glo); details: human, uninfected HepG2-A16-CD81 (EGFP) hepatocytes
# [4] = system: HepG2-A16-CD81 hepatocytes; test: HepG2 cytotoxicity screening (CellTiter-Glo); details: for HepG2 cytotoxicity 12pt dose response: Maximum inhibition (%): 12pt dose response
Compound,IC50 [1],Emax [1],Emax [2],IC50 [2],IC50 [3],inhibition at 2 µM [3],HepG2 cytotoxicity 12pt dose response: Maximum inhibition (%) [4],HepG2 Cytotoxicity primary screen (2uM): % Inhibition [4]
CCc1cc(=O)[nH]c(-n2nc(C3CC3)cc2NC(=O)C2CC2)n1 [UCSD-0787226],0.35 µM,92.4%,8.54%,> 25 µM,> 25 µM,-1.99%,54%,
CCc1c(C)nc(-n2nc(C3CC3)cc2NC(C)=O)[nH]c1=O [UCSD-0787229],0.0826 µM,97.2%,16.1%,> 50 µM,> 25 µM,,3.74%,
O=S(=O)(c1ccc(Cl)s1)N1CCN(Cc2nc(-c3ccco3)cs2)CC1 [UCSD-0787251],11 µM,93.6%,13.6%,> 25 µM,22 µM,,65.6%,12.14%
CC(C)(C)NC(=O)N1CCC(Oc2ccc(C(F)(F)F)cn2)CC1 [UCSD-0787817],11.4 µM,93.5%,13%,> 25 µM,> 25 µM,,16.5%,-4.73%
CCOc1ccc(S(=O)(=O)Nc2cnc(OC)nc2OC)cc1 [UCSD-0788088],5.14 µM,71.2%,-1.04%,> 25 µM,> 25 µM,4.64%,61%,
COc1cccc(CN2CCc3nc(C(=O)NCC(C)C)sc3CC2)c1 [UCSD-0790206],9.85 µM,,32%,> 25 µM,> 25 µM,,35.9%,-10.23%
O=C([C@H]1C[C@@H]2CCN(c3cccc(F)c3)C[C@H]2O1)N1CCCC1 [UCSD-0792262],10.3 µM,93.8%,28.4%,> 25 µM,> 25 µM,,,4.38%
O=C(NCCCN1CCCCC1)c1ccc(-n2ccc3ccccc32)s1 [UCSD-0795001],11.6 µM,116%,-4.22%,> 25 µM,22.1 µM,,66.1%,0.00%
CCS(=O)(=O)N1CCc2ccc(NC(=O)Nc3cccc(SC)c3)cc21 [UCSD-0795016],1.38 µM,98.9%,12.2%,> 25 µM,3.39 µM,0%,54%,
Cc1[nH]/c(=N\C(=O)c2csc(NCC(C)C)n2)sc1C [UCSD-0795190],8.85 µM,84.4%,77%,9.64 µM,> 25 µM,0%,42.7%,
CC(=O)Nc1ccc(-n2ccc3nc(N4CCCC4)ncc3c2=O)cc1 [UCSD-0795240],4.11 µM,100%,-8.22%,> 25 µM,> 25 µM,0%,8.78%,
Cc1ccc(N(CC(=O)c2ccc(Br)cc2)C2=NCCCCC2)cc1 [UCSD-0795313],13.6 µM,93.4%,7.66%,> 25 µM,> 25 µM,,28.6%,0.00%
COCCCNC1N=C(n2nc(C)cc2C)Nc2sc3c(c21)CCCC3 (stereo not drawn) [UCSD-0796603],4.36 µM,98.7%,17.3%,> 25 µM,> 25 µM,,-1.93%,2.66%
CC(=O)Nc1ncc(S(=O)(=O)Nc2ccc3c(c2)OCCO3)s1 [UCSD-0796805],9.83 µM,92%,52.2%,> 25 µM,> 25 µM,,4.04%,-2.36%
CCC1=NC(SCC(=O)c2ccccc2)c2cc(CC)sc2N1 (stereo not drawn) [UCSD-0796974],> 25 µM,42.1%,7.45%,> 25 µM,> 25 µM,3.26%,3.82%,
Cc1cccc(Nc2cc(C3CCCN(CC(N)=O)C3)ccn2)n1 (stereo not drawn) [UCSD-0798772],< 0.000141 µM,89.4%,,> 8.33 µM,> 25 µM,1.68%,3.72%,
CCOc1ccc(CN2CCCC(c3cc4ncccc4[nH]3)C2)cc1 (stereo not drawn) [UCSD-0798855],5.76 µM,90.3%,20.7%,> 25 µM,> 25 µM,9.74%,11.6%,
Fc1ccc(CN2CCCC(c3cc4ncccc4[nH]3)C2)cc1 (stereo not drawn) [UCSD-0798856],8.45 µM,78.4%,23.6%,> 25 µM,> 25 µM,12%,-0.046%,
Cn1cncc1CN1CCCC1c1cncc(Oc2ccc(Cl)cc2)n1 (stereo not drawn) [UCSD-0800730],12.9 µM,92.6%,3.17%,> 25 µM,> 25 µM,,38.2%,0.83%
Cc1ncc(CN2CCOC(c3ccc(-c4ccccc4F)cn3)C2)s1 (stereo not drawn) [UCSD-0800928],11.1 µM,85.7%,19.3%,> 25 µM,> 25 µM,,36.5%,-6.23%
Cc1ccc(Nc2nccc(C3CCN(CC(N)=O)C3)n2)nc1 (stereo not drawn) [UCSD-0800962],0.00289 µM,,81.5%,0.0401 µM,> 25 µM,,15.1%,
COc1cc(C)c(CN2CCc3nc4ccsc4c(=O)n3CC2)cc1C [UCSD-0801369],8.88 µM,95.5%,5.88%,> 25 µM,> 25 µM,0%,25.1%,
O=c1c2sccc2nc2n1CCN(Cc1ccccc1C(F)(F)F)CC2 [UCSD-0801403],6.77 µM,95.7%,18.4%,> 25 µM,> 25 µM,0%,19.7%,
CSc1ccc(CN2C[C@@H]3CC[C@@](O)(c4ccc(C)cn4)[C@@H]3C2)cc1 [UCSD-0801744],23 µM,66.8%,38.3%,> 25 µM,> 25 µM,2.45%,9.86%,
Clc1ccc(-c2ccc(C3CNCCO3)nc2)cc1 (stereo not drawn) [UCSD-0802213],< 0.000141 µM,,95.9%,0.0623 µM,> 25 µM,18.1%,-1.02%,

# Reference: paper PMC7155171, “Probing the Open Global Health Chemical Diversity Library for Multistage-Active Starting Points for Next-Generation Antimalarials” (ACS Infectious Diseases, 2020)
